What was measured:
[1] = target: T1, Tyrosine-protein kinase Tec (Homo sapiens) (UniProt P42680); assay: Selectivity interaction (ActivX KiNativ screen (kinase selectivity in THP-1 cell lysates)) EUB0000639a TEC; type: subcellular; conditions: lysate, at 0.04 µM
T1 sequence (whole entry): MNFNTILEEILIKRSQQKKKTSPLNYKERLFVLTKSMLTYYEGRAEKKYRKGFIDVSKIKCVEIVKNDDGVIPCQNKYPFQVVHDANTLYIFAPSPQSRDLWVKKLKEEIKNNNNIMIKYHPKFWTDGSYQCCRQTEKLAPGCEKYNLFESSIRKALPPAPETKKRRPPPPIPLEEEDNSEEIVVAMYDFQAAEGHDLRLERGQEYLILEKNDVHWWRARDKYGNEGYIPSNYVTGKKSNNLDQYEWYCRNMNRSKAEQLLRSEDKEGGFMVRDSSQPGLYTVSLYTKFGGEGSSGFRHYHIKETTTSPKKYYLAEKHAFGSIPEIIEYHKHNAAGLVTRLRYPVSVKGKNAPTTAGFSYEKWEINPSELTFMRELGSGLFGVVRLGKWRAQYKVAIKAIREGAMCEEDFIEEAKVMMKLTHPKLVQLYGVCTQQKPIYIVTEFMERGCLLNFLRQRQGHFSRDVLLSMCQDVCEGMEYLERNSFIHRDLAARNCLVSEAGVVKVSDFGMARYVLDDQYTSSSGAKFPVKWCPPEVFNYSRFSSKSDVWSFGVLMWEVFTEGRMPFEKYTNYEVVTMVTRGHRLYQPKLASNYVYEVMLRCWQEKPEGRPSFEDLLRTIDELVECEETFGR

[2] = target: Serine/threonine-protein kinase MARK1 (Homo sapiens) (UniProt Q9P0L2); assay: Selectivity interaction (KinomeScan (DiscoverX)) EUB0000695a MARK1; conditions: at 100 nM
Serine/threonine-protein kinase MARK1 (Homo sapiens), sequence (Q9P0L2 whole entry, looked up): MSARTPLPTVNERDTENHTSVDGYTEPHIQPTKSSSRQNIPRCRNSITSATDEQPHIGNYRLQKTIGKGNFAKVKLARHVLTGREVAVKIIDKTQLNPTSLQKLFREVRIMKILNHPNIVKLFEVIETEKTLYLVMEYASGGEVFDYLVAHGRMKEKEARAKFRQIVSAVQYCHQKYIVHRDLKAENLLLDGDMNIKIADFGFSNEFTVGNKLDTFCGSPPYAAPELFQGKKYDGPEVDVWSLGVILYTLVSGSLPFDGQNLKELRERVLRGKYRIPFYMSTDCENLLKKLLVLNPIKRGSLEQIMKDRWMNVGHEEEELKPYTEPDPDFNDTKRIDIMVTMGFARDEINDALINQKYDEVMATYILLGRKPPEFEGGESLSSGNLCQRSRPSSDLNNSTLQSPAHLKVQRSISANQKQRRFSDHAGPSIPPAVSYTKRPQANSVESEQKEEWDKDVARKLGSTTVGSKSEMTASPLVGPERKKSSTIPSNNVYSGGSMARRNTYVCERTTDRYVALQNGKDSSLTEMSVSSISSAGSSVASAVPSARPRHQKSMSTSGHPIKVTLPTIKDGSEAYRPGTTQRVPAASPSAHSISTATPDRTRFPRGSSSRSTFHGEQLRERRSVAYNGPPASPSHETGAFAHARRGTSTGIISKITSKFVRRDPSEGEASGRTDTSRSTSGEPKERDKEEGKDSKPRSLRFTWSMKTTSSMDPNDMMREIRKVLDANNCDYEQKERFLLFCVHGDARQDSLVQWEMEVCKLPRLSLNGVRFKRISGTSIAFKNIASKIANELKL

[3] = target: TGF-beta receptor type-2 (Homo sapiens) (UniProt P37173); conditions: at 10 µM
TGF-beta receptor type-2 (Homo sapiens), sequence (P37173 whole entry): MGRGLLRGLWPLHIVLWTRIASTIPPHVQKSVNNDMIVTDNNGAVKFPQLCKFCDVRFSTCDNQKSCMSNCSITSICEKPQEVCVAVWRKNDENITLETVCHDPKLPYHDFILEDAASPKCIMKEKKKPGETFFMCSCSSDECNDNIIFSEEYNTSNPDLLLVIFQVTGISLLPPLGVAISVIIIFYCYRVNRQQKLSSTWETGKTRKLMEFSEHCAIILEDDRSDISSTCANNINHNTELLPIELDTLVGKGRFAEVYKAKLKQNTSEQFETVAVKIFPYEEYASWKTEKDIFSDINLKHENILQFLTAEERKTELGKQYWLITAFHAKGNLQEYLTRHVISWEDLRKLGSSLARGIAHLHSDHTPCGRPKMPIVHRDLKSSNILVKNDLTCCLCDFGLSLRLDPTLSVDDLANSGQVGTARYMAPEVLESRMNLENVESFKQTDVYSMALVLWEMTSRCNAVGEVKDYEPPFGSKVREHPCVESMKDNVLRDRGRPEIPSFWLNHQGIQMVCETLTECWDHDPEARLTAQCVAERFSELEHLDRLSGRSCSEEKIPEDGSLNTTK

[4] = target: Platelet-derived growth factor receptor beta (Homo sapiens, UniProt P09619); assay: Selectivity interaction (Ambit KINOMEscan and KiNATiv profiling in Jurkat cells) EUB0000090b PDGFRB; type: cell-based; conditions: at 1 µM
Platelet-derived growth factor receptor beta, sequence (P09619 whole entry): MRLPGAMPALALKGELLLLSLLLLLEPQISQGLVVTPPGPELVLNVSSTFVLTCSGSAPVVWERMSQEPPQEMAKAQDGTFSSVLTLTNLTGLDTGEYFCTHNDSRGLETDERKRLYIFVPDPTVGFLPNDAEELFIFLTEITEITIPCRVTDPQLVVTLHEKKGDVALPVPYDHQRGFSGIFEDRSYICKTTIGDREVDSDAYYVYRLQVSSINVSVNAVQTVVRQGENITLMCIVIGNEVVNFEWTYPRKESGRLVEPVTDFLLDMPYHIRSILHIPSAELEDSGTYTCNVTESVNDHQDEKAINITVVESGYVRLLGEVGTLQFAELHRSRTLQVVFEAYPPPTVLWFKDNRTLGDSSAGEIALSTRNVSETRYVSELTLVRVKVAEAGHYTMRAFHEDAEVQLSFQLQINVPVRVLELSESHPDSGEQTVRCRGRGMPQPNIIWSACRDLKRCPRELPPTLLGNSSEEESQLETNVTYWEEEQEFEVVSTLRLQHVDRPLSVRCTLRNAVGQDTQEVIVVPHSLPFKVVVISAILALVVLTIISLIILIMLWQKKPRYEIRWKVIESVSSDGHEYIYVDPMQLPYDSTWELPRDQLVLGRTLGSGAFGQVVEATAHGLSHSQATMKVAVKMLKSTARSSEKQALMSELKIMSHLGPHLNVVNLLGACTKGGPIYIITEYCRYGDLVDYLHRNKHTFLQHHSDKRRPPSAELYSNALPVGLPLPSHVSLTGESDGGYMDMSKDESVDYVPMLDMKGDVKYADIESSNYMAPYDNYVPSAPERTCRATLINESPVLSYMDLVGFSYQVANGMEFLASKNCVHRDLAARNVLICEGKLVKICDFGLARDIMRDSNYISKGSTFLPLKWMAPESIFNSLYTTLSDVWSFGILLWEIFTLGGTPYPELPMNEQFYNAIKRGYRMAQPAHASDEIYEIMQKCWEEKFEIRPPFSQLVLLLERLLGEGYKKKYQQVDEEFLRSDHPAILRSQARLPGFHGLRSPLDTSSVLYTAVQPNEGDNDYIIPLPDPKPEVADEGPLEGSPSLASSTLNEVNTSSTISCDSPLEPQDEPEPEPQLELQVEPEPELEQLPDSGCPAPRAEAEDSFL

[5] = target: Mitogen-activated protein kinase kinase kinase 10 (Homo sapiens) (UniProt Q02779); assay: Selectivity interaction (Ambit KINOMEscan and KiNATiv profiling in Jurkat cells) EUB0000090b MAP3K10; type: cell-based; conditions: at 1 µM
Mitogen-activated protein kinase kinase kinase 10 (Homo sapiens), sequence (Q02779 whole entry, looked up): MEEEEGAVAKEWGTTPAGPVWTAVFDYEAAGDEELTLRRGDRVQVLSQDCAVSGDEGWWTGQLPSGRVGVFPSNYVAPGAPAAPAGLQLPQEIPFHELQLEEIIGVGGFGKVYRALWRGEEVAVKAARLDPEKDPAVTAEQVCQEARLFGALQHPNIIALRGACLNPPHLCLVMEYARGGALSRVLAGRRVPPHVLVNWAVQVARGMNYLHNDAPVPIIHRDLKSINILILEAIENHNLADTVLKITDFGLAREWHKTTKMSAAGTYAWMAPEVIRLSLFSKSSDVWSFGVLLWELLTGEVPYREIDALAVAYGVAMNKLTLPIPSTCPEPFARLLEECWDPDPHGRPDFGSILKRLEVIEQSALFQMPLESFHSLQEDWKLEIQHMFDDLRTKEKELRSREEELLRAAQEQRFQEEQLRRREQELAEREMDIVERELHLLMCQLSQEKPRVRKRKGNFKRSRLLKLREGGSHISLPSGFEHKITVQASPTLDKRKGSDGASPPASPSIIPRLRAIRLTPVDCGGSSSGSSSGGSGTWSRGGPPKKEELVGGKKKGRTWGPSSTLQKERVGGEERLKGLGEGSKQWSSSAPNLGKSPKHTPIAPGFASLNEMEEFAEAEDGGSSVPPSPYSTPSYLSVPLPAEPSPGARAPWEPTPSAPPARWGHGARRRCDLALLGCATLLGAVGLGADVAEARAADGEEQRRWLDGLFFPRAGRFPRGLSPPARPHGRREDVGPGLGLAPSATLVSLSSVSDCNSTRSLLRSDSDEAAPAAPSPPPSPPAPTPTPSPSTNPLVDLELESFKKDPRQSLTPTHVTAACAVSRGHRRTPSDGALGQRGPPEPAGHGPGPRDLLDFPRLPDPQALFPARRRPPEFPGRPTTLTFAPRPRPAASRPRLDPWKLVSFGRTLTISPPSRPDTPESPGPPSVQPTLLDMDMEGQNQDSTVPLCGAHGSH

[6] = target: Dual specificity protein kinase CLK1 (Homo sapiens, UniProt P49759); assay: Selectivity interaction (KinomeScan (DiscoverX)) EUB0000655a CLK1; conditions: at 10 µM
Dual specificity protein kinase CLK1, sequence (P49759 whole entry, looked up): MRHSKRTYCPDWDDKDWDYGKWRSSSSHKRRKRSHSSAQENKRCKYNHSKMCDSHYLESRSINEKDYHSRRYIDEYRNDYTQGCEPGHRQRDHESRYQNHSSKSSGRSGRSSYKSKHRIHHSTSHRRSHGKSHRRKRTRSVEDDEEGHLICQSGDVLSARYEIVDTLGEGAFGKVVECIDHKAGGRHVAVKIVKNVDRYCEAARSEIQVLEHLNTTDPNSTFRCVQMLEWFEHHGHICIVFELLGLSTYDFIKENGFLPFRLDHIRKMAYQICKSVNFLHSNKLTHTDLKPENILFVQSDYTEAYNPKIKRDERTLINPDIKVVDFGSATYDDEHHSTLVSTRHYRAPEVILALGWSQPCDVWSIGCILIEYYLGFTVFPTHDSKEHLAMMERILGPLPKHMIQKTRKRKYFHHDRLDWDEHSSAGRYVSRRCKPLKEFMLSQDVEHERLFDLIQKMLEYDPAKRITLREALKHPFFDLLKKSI

SRSF protein kinase 1 = SRSF protein kinase 1 (Homo sapiens, UniProt Q96SB4); assay: Selectivity interaction (Kinase panel (KiNativ target engagement assay in Jurkat cells)) EUB0001635a SRPK1; type: cell-based; conditions: Selectivity number of off-targets 0.0, Selectivity number of targets 233.0, Source Knowledge https://www.sciencedirect.com/science/article/pii/S2451945619300674?via%3Dihub, at 1 µM
SRSF protein kinase 1, sequence (Q96SB4 whole entry): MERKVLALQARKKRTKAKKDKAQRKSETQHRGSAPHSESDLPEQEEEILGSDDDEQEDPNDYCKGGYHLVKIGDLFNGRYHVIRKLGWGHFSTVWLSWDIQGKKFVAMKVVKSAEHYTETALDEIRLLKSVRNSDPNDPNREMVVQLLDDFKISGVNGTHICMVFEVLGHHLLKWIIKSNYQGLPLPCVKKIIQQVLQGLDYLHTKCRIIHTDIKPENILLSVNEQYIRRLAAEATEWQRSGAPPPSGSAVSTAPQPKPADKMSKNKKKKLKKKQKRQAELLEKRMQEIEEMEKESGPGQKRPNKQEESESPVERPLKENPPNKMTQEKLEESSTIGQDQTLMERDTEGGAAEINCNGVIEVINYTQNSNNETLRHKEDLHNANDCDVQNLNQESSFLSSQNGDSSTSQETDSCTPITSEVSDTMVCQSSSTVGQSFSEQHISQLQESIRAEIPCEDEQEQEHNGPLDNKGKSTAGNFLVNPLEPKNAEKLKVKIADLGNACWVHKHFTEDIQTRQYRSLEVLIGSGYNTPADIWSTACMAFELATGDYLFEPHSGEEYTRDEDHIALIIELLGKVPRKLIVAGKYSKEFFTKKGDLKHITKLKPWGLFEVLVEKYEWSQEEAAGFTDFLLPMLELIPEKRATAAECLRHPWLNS

[7] = target: T2, Ephrin type-B receptor 4 (Homo sapiens) (UniProt P54760); assay: Selectivity interaction (KinomeScan (DiscoverX)) EUB0000229b EPHB4; conditions: at 10 µM
T2 sequence (whole entry): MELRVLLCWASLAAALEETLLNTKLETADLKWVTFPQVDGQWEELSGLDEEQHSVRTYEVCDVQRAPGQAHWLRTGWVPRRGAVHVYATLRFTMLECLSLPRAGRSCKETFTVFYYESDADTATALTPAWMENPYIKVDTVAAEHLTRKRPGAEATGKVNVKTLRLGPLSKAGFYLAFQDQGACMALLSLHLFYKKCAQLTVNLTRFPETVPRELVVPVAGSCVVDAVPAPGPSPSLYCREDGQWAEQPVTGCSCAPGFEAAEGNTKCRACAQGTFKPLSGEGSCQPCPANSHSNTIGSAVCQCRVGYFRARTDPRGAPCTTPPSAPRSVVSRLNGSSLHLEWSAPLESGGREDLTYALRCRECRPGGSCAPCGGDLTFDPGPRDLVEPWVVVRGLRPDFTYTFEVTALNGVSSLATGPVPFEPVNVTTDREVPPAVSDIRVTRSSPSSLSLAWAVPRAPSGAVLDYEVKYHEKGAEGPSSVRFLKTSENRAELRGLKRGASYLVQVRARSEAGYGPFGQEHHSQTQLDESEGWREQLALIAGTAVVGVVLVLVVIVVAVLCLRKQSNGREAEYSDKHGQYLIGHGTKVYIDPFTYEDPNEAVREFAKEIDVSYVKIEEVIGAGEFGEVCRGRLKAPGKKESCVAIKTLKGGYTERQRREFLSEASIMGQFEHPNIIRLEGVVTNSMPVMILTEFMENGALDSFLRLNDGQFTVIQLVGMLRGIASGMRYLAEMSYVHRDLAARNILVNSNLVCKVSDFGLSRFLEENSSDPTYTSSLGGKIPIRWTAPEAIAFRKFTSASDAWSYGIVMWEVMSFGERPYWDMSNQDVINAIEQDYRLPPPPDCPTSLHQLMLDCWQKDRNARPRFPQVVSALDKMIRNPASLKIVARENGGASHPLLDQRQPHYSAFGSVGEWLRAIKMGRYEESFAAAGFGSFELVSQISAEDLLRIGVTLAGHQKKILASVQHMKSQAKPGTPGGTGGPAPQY

[8] = target: T3, Serine/threonine-protein kinase STK11 (Homo sapiens) (UniProt Q15831); assay: Selectivity interaction (KinomeScan (DiscoverX)) EUB0000092b STK11; conditions: at 10 µM
T3 sequence (whole entry): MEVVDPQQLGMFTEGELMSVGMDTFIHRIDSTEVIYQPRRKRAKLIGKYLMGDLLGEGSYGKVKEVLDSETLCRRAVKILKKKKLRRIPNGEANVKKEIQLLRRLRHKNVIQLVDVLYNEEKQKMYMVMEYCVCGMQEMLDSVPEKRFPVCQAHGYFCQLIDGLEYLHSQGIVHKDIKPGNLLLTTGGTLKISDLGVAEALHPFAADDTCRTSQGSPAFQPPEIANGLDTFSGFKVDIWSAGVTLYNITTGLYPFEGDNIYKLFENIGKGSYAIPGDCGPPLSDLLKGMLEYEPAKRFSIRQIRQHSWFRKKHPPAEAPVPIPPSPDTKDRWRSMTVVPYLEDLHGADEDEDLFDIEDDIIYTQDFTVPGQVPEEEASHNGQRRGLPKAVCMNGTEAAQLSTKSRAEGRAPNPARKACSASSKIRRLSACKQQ

[9] = target: MAP kinase-activated protein kinase 2 (Homo sapiens, UniProt P49137); assay: Selectivity interaction (KinomeScan (DiscoverX)) EUB0000092b MAPKAPK2; conditions: at 10 µM
MAP kinase-activated protein kinase 2, sequence (P49137 whole entry, looked up): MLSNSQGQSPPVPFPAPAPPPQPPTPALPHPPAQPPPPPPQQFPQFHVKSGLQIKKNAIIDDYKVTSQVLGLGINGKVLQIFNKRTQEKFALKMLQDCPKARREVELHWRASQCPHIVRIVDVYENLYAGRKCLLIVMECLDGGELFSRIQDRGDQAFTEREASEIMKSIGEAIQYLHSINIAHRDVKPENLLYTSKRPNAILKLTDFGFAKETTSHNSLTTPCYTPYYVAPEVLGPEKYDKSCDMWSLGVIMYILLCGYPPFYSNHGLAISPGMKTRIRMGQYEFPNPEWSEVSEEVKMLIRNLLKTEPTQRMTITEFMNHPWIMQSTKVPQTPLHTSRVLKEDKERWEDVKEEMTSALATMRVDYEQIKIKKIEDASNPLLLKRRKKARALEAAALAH

CC[C@@H]1[C@H](F)C(=O)N[C@@H]1COc1nccc2cc(C(N)=O)c(OC)cc12 [ZIMLOVISERTIB]
% of inhibition [1]: -59.8%

Cc1cc(F)c(C(=O)Nc2cccc(-c3nncn3C(C)C)n2)cc1-n1cnc(C2CC2)c1
% of control [2]: 100%

COCC(=O)NC/C=C/c1ccc2ncnc(Nc3ccc(Oc4ccc(C)nc4)c(C)c3)c2c1 [CP-724714]
% of control [3]: 94%

CN(C)C/C=C/C(=O)Nc1ccc(C(=O)N2CCCC(Nc3ncc(Cl)c(-c4c[nH]c5ccccc45)n3)C2)cc1 (stereo not given)
% of control [4]: 76%
% of control [5]: 100%

CN(C)CCOc1ccc(-c2nc(-c3ccncc3)c(-c3ccc4c(c3)CC/C4=N\O)[nH]2)cc1
% of control [6]: 77%

C=CC(=O)Nc1ccc(C(=O)Nc2[nH]nc3c2CN(C(=O)N[C@H](CN(C)C)c2ccccc2)C3(C)C)cc1
% of engagement (SRSF protein kinase 1): 6%

COc1cc(N(C)c2ccnc3ccc(C(F)(F)F)cc23)cc(OC)c1OC
% binding [7]: 100%

CCC(=O)N1CCN(c2ccc(-n3c(=O)ccc4cnc5ccc(-c6cnc7ccccc7c6)cc5c43)cc2C(F)(F)F)CC1
% of control [8]: 100%
% of control [9]: 100%
